The subject of one assay is X4-trophic HI viruses. Briefly: HLAC model (human tonsil cells) infected with X4-trophic HI viruses, RT assay of supernatants. To be noted: for virus replication of X4-trophic HI viruses (RT data): tonsil A; for X4-trophic HIV replication (RT data): tonsil B. It is filed as cell-based, HIV-1. How it is done: Human tonsils were macerated and transferred into 96-well plates. After one day of incubation, the cells were infected with X4-trophic HI viruses, mixed with the corresponding inhibitors and washed on the following day. These and also the subsequent steps are described in detail under Example 4c-d. At each kinetic point, 150 μL of medium was removed and stored at −80° C. until measurement at RT. The medium that was again added contained the inhibitor concentrations necessary for the special preparation.
After 15 days, the proportion of functional HI viruses formed was determined by means of RT assays (see Example 4e) of the stored supernatants.
Tonsil cells were cultivated in RPMI 1640 with 15% (V/V) fetal calf serum, 2 mM L-glutamine, 100 U/mL penicillin, 100 μg/mL streptomycin, 2.5 μg/mL Fungizone, 1 mM sodium pyrovate, 1% MEM non-essential amino acid solution and 50 μg/mL gentanamycin (“tonsil medium”).
To produce virus preparations, plasmid DNA of molecular HIV-1 DNA was transfected into HeLa cells using the calcium phosphate precipitation method. For this purpose, confluent cultures of HeLa cells (5×10^6 cells) were incubated with 25 μg of plasmid DNA in calcium phosphate crystals, produced according to a method of Graham and van der Eb (1973), then subjected to glycerol shock according to Gorman et al. (1982). To obtain concentrated virus preparations, the cell culture supernatants were harvested two days after transfection. Thereafter the cells as well as their constituents were separated by centrifugation (1000 g, 5 minutes, 4° C.) and filtration (0.45 μm pore size). Virus particles were pelleted by ultracentrifugation (Beckman SW55 rotor, 1.5 hours, 35,000 rpm, 10° C.) and then resuspended in 1 mL of DMEM medium. The virus preparations were sterilized by filtration (0.45 μm pore size) and were frozen in portions (−80° C.). Individual virus preparations were standardized by determination of the reverse transcriptase activity, specifically on the basis of an already described test (Willey et al., 1988), using [32P]-TTP incorporation into an oligo(dT)-poly(A) template.
The tonsil tissue was washed in PBS, then cleaned of blood clots and cut into pieces measuring 1 to 2 mm^2 with the scalpel. Individual cells were obtained by mechanical pressing through a filter gauze. Following centrifugation of the isolated cells (5 minutes, 1200 rpm), the cells were counted, seeded into 96-well plates and incubated overnight at 37° C. and 5% CO2. Infection of the cells was achieved by addition of 10 ng of X4-trophic HIV stocks and simultaneous application of the corresponding inhibitor concentrations. On the following day, 50 μL of supernatant was withdrawn (“1 dpi”) and stored at −80° C. Thereupon the cells were centrifuged (5 minutes, 1200 rpm) and a further 50 μL of supernatant was withdrawn. Following resuspension of the cells in 100 μL of tonsil medium, this washing step was repeated two times. Tonsil medium with the corresponding inhibitor concentrations was added and then the cells were re-incubated at 37° C. and 5% CO2. On days 3, 6, 9 and 12, 150 μL of medium was withdrawn and stored at −80° C., and 150 μL of medium with the corresponding inhibitor concentrations was added. On day 15, only 150 μL of supernatant was removed and stored at −80° C., after which the cells were discarded.
The tonsil supernatants stored at −80° C. were assayed by determination of the reverse transcriptase activity, specifically on the basis of an already described test (Willey et al., 1988), using [32P]-TTP incorporation into an oligo(dT)-poly(A) template.

For assay [1], the system named is HeLaSS6 cells transfected with subgenomic HIV-1 expression vector pNLenv1. The experiment in a line: Time kinetics of Gag processing and virus release, Western blot of cell and virus fractions. It counts as cell-based. The following applies: 100 nM 17-AAG vs inhibitor-free medium. As for the experimental part:
Time kinetics were studied for biochemical analysis of the influence of 17-AAG on the kinetics of Gag processing and virus release. The experimental details of cultivation, transfection, media exchange and time kinetics are reported in Example 4a/b. For this purpose there were used cultures of HeLaSS6 cells that had been transfected with pNLenv1 (Schubert et al., 1995). Following incubation in 17-AAG-containing medium (100 nM 17-AAG) or inhibitor-free medium, the kinetic studies were begun after distinct washing steps and aliquoting of the preparations. Aliquot cell cultures were taken at each time and separated into cell, virus and cell-culture supernatant fractions by centrifugation. The HIV proteins were separated by SDS PAGE, transferred onto PVDF membranes and then made visible on x-ray films by antibody-mediated chemiluminescence.
HeLa cells (ATCC CCL2) were cultivated in Dulbeccos' modified Eagle's medium (DMEM) with 10% fetal calf serum, 2 mM L-glutamine, 100 U/mL penicillin and 100 μg/mL streptomycin.
HeLa cells (ATCC CCL2) were transfected using a mixture of pNLΔenv and lipofectamine2000 in OPTI-MEM. A media exchange was undertaken after 8 hours of incubation at 37° C. and 5% CO2. […] The HIV-specific and cell-specific proteins were detected via specific antibodies (to Hsp70; Hsp90; p24; PR55; β-actin). […]

Results on two molecules are retold here after US20090156473A1, “PHARMACEUTICAL COMPOSITION FOR THE TREATMENT OF VIRAL INFECTIONS AND/OR TUMOR DISEASES BY INHIBITING PROTEIN FOLDING AND PROTEIN BREAKDOWN” (Virologik GmbH, priority 2006, published 2009).

`C=CCNC1=C2C[C@@H](C)C[C@H](OC)[C@H](O)[C@@H](C)/C=C(\C)[C@H](OC(N)=O)[C@@H](OC)/C=C\C=C(/C)C(=O)NC(=CC1=O)C2=O` [17-AAG]: the “virus replication of X4-trophic HI viruses in the HLAC model” value with X4-trophic HI viruses (summary statement of Example 3, RT assays after 15 days) was “inhibits the virus replication”. In addition, in the assay on X4-trophic HI viruses (10 nM 17-AAG alone), the “virus replication of X4-trophic HI viruses (RT data)” value (“virus replication … (RT data)” for short) is given as “not clearly influenced” and the “X4-trophic HIV replication (RT data)” value is on record as “distinct reduction of virus replication”. In the assay with X4-trophic HI viruses (single inhibitor at 1 nM), the “virus replication … (RT data)” value is on record as “not clearly influenced” and the “X4-trophic HIV replication (RT data)” value is “did not exhibit any influence”. Besides, in assay [1], the “Gag processing in the virus fraction” value is given as “reduced Gag processing” and the “Hsp70 expression in the cell fraction” value was “intensified Hsp70 expression”.
As to `CC(C)C[C@H](NC(=O)[C@H](Cc1ccccc1)NC(=O)c1cnccn1)B(O)O` [PS341], in the assay with X4-trophic HI viruses (single inhibitor at 1 nM), the “virus replication … (RT data)” value is recorded as “not clearly influenced” and the “X4-trophic HIV replication (RT data)” value is reported as “did not exhibit any influence”.
